Results taken from ChEMBL document CHEMBL4680276, “Structure-Activity Relationships of Daptomycin Lipopeptides” (2020).
Converted amounts (≈) assume the structure as drawn.

Key:
Type in all cases: functional
[1] = system: Bacillus subtilis; experiment: Antibacterial activity against Bacillus subtilis PY79 incubated for 18 hrs in presence of 73.6 mg/L Ca2+ by visual method
[2] = Antibacterial activity against Streptomyces sp. WAC4713 measured up to 55 hrs; conditions: Streptomyces sp. WAC4713, 55 h; time hrs <=55
[3] = system: Bacillus subtilis; experiment: Antibacterial activity against Bacillus subtilis ATCC1046 in presence of 1.25 mM Ca2+ by serial dilution method; conditions: time 18 hrs
[4] = system: Staphylococcus aureus; experiment: Antibacterial activity against Staphylococcus aureus ATCC 29213 incubated for 12 hrs in presence of 1.25 mM Ca2+ by broth microdilution method

MIC90 [1] | Structure (SMILES) | also measured
2 µg/mL | CCCCCCCCCC(=O)N[C@@H](Cc1c[nH]c2ccccc12)C(=O)N[C@H](CC(N)=O)C(=O)N[C@@H](CC(=O)O)C(=O)N[C@@H]1C(=O)NCC(=O)N[C@@H](CCCN)C(=O)N[C@@H](CC(=O)O)C(=O)N[C@H](C)C(=O)N[C@@H](CC(=O)O)C(=O)NCC(=O)N[C@H](CO)C(=O)N[C@@H]([C@H](C)CC(=O)O)C(=O)N[C@@H](CC(=O)c2ccccc2N)C(=O)O[C@@H]1C | MIC [2]: 512 µg/mL (≈ 316 µM)
20 µg/mL | CCCCCCCCCC(=O)N[C@@H](Cc1c[nH]c2ccccc12)C(=O)N[C@H](CC(=O)O)C(=O)N[C@@H](CC(N)=O)C(=O)N[C@@H]1C(=O)N(C)CC(=O)N[C@@H](CCCN)C(=O)N[C@@H](CC(=O)O)C(=O)N[C@H](C)C(=O)N[C@@H](CC(=O)O)C(=O)NCC(=O)N[C@H](CO)C(=O)N[C@@H](CCC(=O)O)C(=O)N[C@@H](CC(=O)c2ccccc2N)C(=O)O[C@@H]1C | –
25 µg/mL | CCCCCCCCCC(=O)N[C@@H](Cc1c[nH]c2ccccc12)C(=O)N[C@H](CCC(=O)O)C(=O)N[C@@H](CC(N)=O)C(=O)N[C@H]1COC(=O)[C@H]([C@@H](C)CC)NC(=O)[C@H](CCC(=O)O)NC(=O)[C@@H](CC(N)=O)NC(=O)CNC(=O)[C@H](CC(=O)O)NC(=O)[C@@H](CCCCN)NC(=O)[C@H](CC(=O)O)NC(=O)[C@H](C)NC(=O)CN(C)C1=O | –
– | CCCCCCCCCC(=O)N[C@@H](Cc1c[nH]c2ccccc12)C(=O)N[C@H](CC(N)=O)C(=O)N[C@@H](CC(N)=O)C(=O)N[C@@H]1C(=O)NCC(=O)N[C@@H](CCCCN)C(=O)N[C@@H](CC(=O)O)C(=O)N[C@H](C)C(=O)N[C@@H](CC(=O)O)C(=O)NCC(=O)N[C@H](CO)C(=O)N[C@@H](CCC(=O)O)C(=O)N[C@@H](Cc2c[nH]c3ccccc23)C(=O)O[C@@H]1C | MIC [3]: 1.5 µg/mL
11 µg/mL | CCCCCCCCCC(=O)N[C@@H](Cc1c[nH]c2ccccc12)C(=O)N[C@@H](CC(N)=O)C(=O)N[C@@H](CC(=O)O)C(=O)N[C@@H]1C(=O)NCC(=O)N[C@@H](CCCN)C(=O)N[C@@H](CC(=O)O)C(=O)N[C@H](C)C(=O)N[C@@H](CC(=O)O)C(=O)NCC(=O)N[C@H](CO)C(=O)N[C@H](CCC(=O)O)C(=O)N[C@@H](CC(=O)c2ccccc2N)C(=O)O[C@@H]1C | –
25 µg/mL | CCCCCCCCCC(=O)N[C@@H](Cc1c[nH]c2ccccc12)C(=O)N[C@H](CCC(=O)O)C(=O)N[C@@H](CC(N)=O)C(=O)N[C@@H]1C(=O)N(C)CC(=O)N[C@@H](C)C(=O)N[C@@H](CC(=O)O)C(=O)N[C@H](CCCCN)C(=O)N[C@@H](CC(=O)O)C(=O)NCC(=O)N[C@H](CC(N)=O)C(=O)N[C@@H](CCC(=O)O)C(=O)N[C@@H]([C@@H](C)CC)C(=O)O[C@@H]1C | –
– | CCCCCCCCCC(=O)N[C@@H](Cc1c[nH]c2ccccc12)C(=O)N[C@H](CC(N)=O)C(=O)N[C@@H](CC(=O)O)C(=O)N[C@@H]1C(=O)NCC(=O)N[C@@H](CCCCN)C(=O)N[C@@H](CC(=O)O)C(=O)N[C@H](C)C(=O)N[C@@H](CC(=O)O)C(=O)NCC(=O)N[C@H](CO)C(=O)N[C@@H](CCC(=O)O)C(=O)N[C@@H](CC(=O)c2ccccc2N)C(=O)O[C@@H]1C | MIC [4]: 64 µg/mL
20 µg/mL | CCCCCCCCCC(=O)N[C@@H](Cc1c[nH]c2ccccc12)C(=O)N[C@H](CC(=O)O)C(=O)N[C@@H](CC(N)=O)C(=O)N[C@@H]1C(=O)N(C)CC(=O)N[C@@H](C)C(=O)N[C@@H](CC(=O)O)C(=O)N[C@H](C)C(=O)N[C@@H](CC(=O)O)C(=O)NCC(=O)N[C@H](CO)C(=O)N[C@@H](CCC(=O)O)C(=O)N[C@@H](CC(=O)c2ccccc2N)C(=O)O[C@@H]1C | –
